The values below come from patent US12208080B2, “Compositions and methods for modulation of extracellular vesicle release and treatment of neurological disorders” (GEORGE MASON RESEARCH FOUNDATION, INC., priority 2018, dated 2025).

The subject of the experiment is autophagy proteins (p62 and LC3) in U1 cells. In words: Autophagy proteins over time in U1 cells and their EVs (Western blot). Type of experiment: cell-based. On the procedure: FIGS. 18A-18B are gels showing CBD promotes autophagy turnover, resulting in a decrease in extracellular autophagosomal secretion. A) U1 cells (1×10^6) were treated±CBD (10 μM) for the following incubation periods: 0, 6, 24, and 48 hours. Cells were pelleted and lysed, exosomes from supernatants were enriched with NT80/82 beads overnight at 4° C. Samples were run through SDS-PAGE and western blotted for autophagy proteins (p62 and LC3), and Actin. B) U1 cells (1×10^6) were treated±10 μM CBD (every day), Rapamycin (50 nM), INK128 (50 nM), Bafilomycin A1 (50 nM), SB 203580 (20 μM), Wortmannin (2 nM) for a 5-day incubation period. Cells were pelleted and lysed, exosomes from supernatants were enriched using NT80/82 beads overnight at 4° C. Samples were run through SDS-PAGE and western blotted for autophagy proteins (p62, LC3, ATG12-ATG5, ATG12, Beclin-1), and Actin.
FIGS. 19A-19E are graphs showing normalized densitometry analysis of CBD treatment of HIV-1 infected monocytes over time and autophagy. Intracellular (A) p62, (B) LC3 I, and (C) LC3 II levels, and extracellular (D) p62, and (E) LC3 I levels were counted on the Western blot data from FIG. 5A through densitometry analysis, followed by normalization to Actin levels.
We have previously described a complex relationship between the intracellular autophagy pathway, secretory autophagy pathway, and EVs, where regulation of the autophagy pathway in infected cells can result in the blocking of viral protein degradation and, in turn, the export of viral products through EVs. Based on this, we next asked whether CBD had any effect on EV release by examining the secretory autophagy pathway. In order to evaluate the levels of intracellular autophagy proteins in HIV-1 infected cells, U1 cells were treated with CBD (10 μM) for 0, 6, 24, and 48 hours, followed by Western blot analysis for autophagosomal markers, p62 and LC3 I/II (FIG. 18A). […] In order to examine any alterations that CBD might have on secretory autophagy in HIV-1 infected monocytes, EVs were enriched from the supernatants using NT80/82 and analyzed by Western blot for changes in secreted autophagosome proteins. […] This is in line with numerous studies which have shown the HIV-1 viral proteins Tat and Nef to be involved in autophagy deregulation in infected cells.
A general note: Immunoblotting shows a protein as a band on a membrane.

With `C=C(C)[C@@H]1CCC(C)=C[C@H]1c1c(O)cc(CCCCC)cc1O` [CBD, 2-[1R-3-methyl-6R-(1-methylethenyl)-2-cyclohexen-1-yl]-5-pentyl-1,3-benzenediol], the “LC3 I in secreted EVs” value (10 μM, 6, 24, 48 hours vs untreated) is “overall lower level of LC3 I”. For the same compound, for the setting “10 μM, 6- and 24-hour vs controls”, the “intracellular LC3 II” value is on record as “higher levels of LC3 II”. In addition, the “extracellular (EV) p62” value (10 μM, from the 6-hour time point onwards vs untreated) is listed as “lower p62 levels”. Also, under “10 μM, starting at 24-hour, peaking at 48-hour, FIG. 18A”, the “intracellular p62” value is “time dependent decrease”. Moreover, the “intracellular LC3 I” value (10 μM, up to 24 hours vs untreated) is “decrease in LC3 I levels”.
